One molecule from publication PMC2736202 (2009) can be followed below.

Assay in all cases: electrospray mass spectrometry
In test [1] the test system is UpsB-Q-1 (DNA, G4) CAGGGTTAAGGGTATAACTTTAGGGGTTAGGGTT
The following applies: NH4+ 150 mM (NH4OAc); 20% methanol; 10 μM DNA, equimolar 10 μM BOQ1 in Figure 6B.

The test system of test [2] is UpsB-Q-3 (DNA, G4) CAGGGTTAAGGGTATACATTTAGGGGTTAGGGTT
The conditions noted are these: NH4+ 150 mM (NH4OAc); 20% methanol; 10 μM DNA.

Test [3] deals with UpsB-Q-2 (DNA, G4) TAGGGTTAAGGGTATAACGTTAAGGGTTAGGGTT
The conditions noted are these: NH4+ 150 mM (NH4OAc); 20% methanol; 10 μM DNA.

Test [4] has as its system UpsB-Q-4 (DNA, G4) CAGGGTTTAGGGTATAACTTTAGGGGTTAGGGTT
The conditions noted are these: NH4+ 150 mM (NH4OAc); 20% methanol; 10 μM DNA.

In general, Kd refers to the equilibrium constant for the complex coming apart.

For `c1cc2nc3c4ccc5cc6cc(ccc6nc53)CNCCNCCNCc3ccc5nc6c(ccc7cc8cc(ccc8nc76)CNCCNCCNCc1cc2c4)cc5c3`, the Kd is 2.6 ± 0.5 µM in test [1], 1.7 ± 0.7 µM in test [2], 1.4 ± 0.4 µM in test [3] and 2.7 ± 1.1 µM in test [4].
